Measurements published in ChEMBL document CHEMBL3507680, “University of Dundee, Gates Library screen for HepG2 cell viability”.

assay: Human HepG2 cell viability assay in 384 well format; assay type: toxicity, cell-based; parameters: dose 125 nL, time 70.5 hour; concentration not given beside the values; settings: HepG2 cells, read-out: Inhibition

| SMILES | cytotoxicity at 70.5 h [%] |
| --- | --- |
| CC(C)CCOc1ccc(C(C)NC(=O)Cn2cccnc2=O)cc1 (stereo not drawn) | -5.94 |
| COc1ccc(CCC(=O)Nc2ccncc2C)cc1 | -9.71 |
| Cc1nc(C2CCCN(C(=O)CN3CCCC3=O)C2)sc1C (stereo not drawn) | -15.5 |
| O=C(CN1CCCNC1=O)N1CCCC(c2nccs2)C1 (stereo not drawn) | -8.65 |
| N#Cc1ccc(CNC(=O)NCCC(=O)NC2CCCC2)c(F)c1 | -2.28 |
| CNc1nc(CNC(=O)Nc2ccc(OC)cc2C)cs1 | -7.81 |
| Cc1cnc2c(c1)N(C(=O)c1ccc(=O)n(C)c1)CCO2 | -2.79 |
| O=C(NCCCc1ccc(O)cc1)C1(O)Cc2ccccc2C1 | -8.24 |
| CC(C)COC(C)C(=O)NCc1ccc(Cn2ccnc2)cc1 (stereo not drawn) | -8.31 |
| CCS(=O)(=O)NCCCNC(=O)N(C)C(C)c1ccccn1 (stereo not drawn) | -5.57 |
| Cc1cccc(C)c1CCNC(=O)N1CCCC2(C1)OCCO2 | -5.85 |
| CC(C)COC(C)C(=O)NCc1ccccc1Cn1ccnc1 (stereo not drawn) | -7 |
| CCC(C)(NCC(=O)Nc1nc(C)cs1)c1nc(C)cs1 (stereo not drawn) | -0.105 |
| COc1cccc(CNCc2nnc3n2CC(C(F)(F)F)CC3)c1 (stereo not drawn) | 6.13 |
| O=C(CCn1ccccc1=O)Nc1ccc(I)cc1 | -10.5 |
| Cc1ccc(NC(=O)CNc2cccc3c2CCCC3)c(Br)c1 | -8.9 |
| O=C(NCc1cc[nH]n1)NCC(c1ccccc1Cl)N1CCCC1 (stereo not drawn) | -14.6 |
| CNC(=O)c1cccc(NC(=O)CN2CCN(S(C)(=O)=O)CC2)c1 | -11.3 |
| COC(=O)c1cccc(NC(=O)CN2CCN(S(C)(=O)=O)CC2)c1 | -9.51 |
| COc1ccc(NC(=O)CNc2cccc3c2CCCC3)c(OC)c1 | 29.7 |
| CN1CCN(c2ncccc2CNc2ncccc2C#N)CC1 | -10.7 |
| O=C(c1cn(-c2ccccc2Cl)nn1)N1CCCSCC1 | -9.29 |
| CC(C)(CNC(=O)OC(C)(C)C)NC(=O)C1CC(=O)N(C2CC2)C1 (stereo not drawn) | 13.1 |
| C=C(C)CN(Cc1cccc(O)c1)C1CCC(O)CC1 (stereo not drawn) | -6.84 |

| SMILES | cytotoxicity at 70.5 h [%] |
| --- | --- |
| CCN1CC(C(=O)NC(C)(C)CNC(=O)OC(C)(C)C)CC1=O (stereo not drawn) | -8.18 |
| N#Cc1cccnc1NCc1cccnc1N1CCC(C(N)=O)CC1 | -9.67 |
| COc1ccccc1OCC(=O)N1CCN(Cc2noc(C)n2)CC1 | -10.6 |
| Cc1cnn(CC2CCCN2Cc2cc(=O)n3cccc(C)c3n2)c1 (stereo not drawn) | -7.45 |
| Cc1cccn2c(=O)cc(CN3CCCCC3Cn3cncn3)nc12 (stereo not drawn) | 7.36 |
| CC(NC1(CNC(=O)C(C)(C)C#N)CCOCC1)c1ccccc1 (stereo not drawn) | 15.5 |
| Cc1ccc(C2CSCCN2C(=O)c2ccsc2)o1 (stereo not drawn) | -6.25 |
| Cc1cc(C)n(-c2cncc(NCCNC(=O)CC3CCCC3)n2)n1 | -4.52 |
| CC1CCCN(C(=O)c2csc(S(N)(=O)=O)c2)CC1 (stereo not drawn) | -1.03 |
| FC(F)(F)C1CCc2nnc(CNCc3ccsc3)n2C1 (stereo not drawn) | -2.38 |
| C[S+]([O-])c1nncn1CC(=O)c1ccc(Cl)c(Cl)c1 (stereo not drawn) | -3.69 |
| CCN1CC(C(=O)NC(C)(C)CC(C)(C)C)CC1=O (stereo not drawn) | -1.71 |
| Cc1nc(CN2CCN(C(=O)COCc3ccccc3)CC2)no1 | -9.26 |
| CCN1CCC(CNC(=O)C2(c3cccc(C)c3)CCCCC2)CC1 | 1.1 |
| Cc1cnn(CC(C)NCc2nc(-c3ccsc3)oc2C)c1 (stereo not drawn) | -8.91 |
| CCN1CCC(NC(=O)CN2CC(n3nc(C)cc3C)C2)CC1 | -6.85 |
| CN(C)CCN1CCN(C(=O)c2ccn(C)c(=O)c2)CC1 | -11.6 |
| Cc1ccc(C)c(C(=O)N2CCN(C(=O)Cc3ccccn3)CC2)c1 | -8.87 |
| Fc1ccc(OCCNCCn2cccn2)cc1 | -9.89 |
| COCc1nc(C(=O)N2CCCC2c2ccc(OC)cc2)cs1 (stereo not drawn) | -14.3 |
| Cc1cccc(C(=O)N2CCC(c3n[nH]c(C4CC4)n3)CC2)c1 | 20.7 |
| N#Cc1ccc(OCCNCCn2cccn2)cc1 | -10.2 |
| COCc1nc(C(=O)N2CCCC2c2cccs2)cs1 (stereo not drawn) | -7.86 |
| CC(Cn1cccn1)NCc1csc(-c2ccsc2)n1 (stereo not drawn) | -12.1 |

| SMILES | cytotoxicity at 70.5 h [%] |
| --- | --- |
| Cc1nn(C)c(N(C)C)c1CNCc1ccnc(N2CCOCC2)c1 | -5.46 |
| CCn1cnnc1CNC(=O)c1cc(Cl)ccc1I | -10.9 |
| CCn1cnnc1CNC(=O)c1ccc(Cl)cc1I | -7.84 |
| CC(=O)Nc1nc(C(=O)NCc2ccc(OC(C)C)nc2)cs1 | -5.15 |
| CC(=O)Nc1nc(C(=O)NCc2ccc(N3CCOCC3)nc2)cs1 | 14.9 |
| CCn1cnnc1CNC(=O)c1cc(Cl)ccc1F | -11.5 |
| COc1c(CNCc2ccnc(N3CCOCC3)c2)c(C)nn1C | -3.59 |
| O=C(CCNc1ncccn1)N1CCCC(n2cccn2)C1 (stereo not drawn) | -5.02 |
| CC(C)Cc1nc(CN2CCN(CC(O)c3ccccc3)CC2)no1 (stereo not drawn) | -3.23 |
| Cn1ccc(C(=O)N2CCN(CC(O)C(C)(C)C)CC2)cc1=O (stereo not drawn) | -5.62 |
| O=C(CCCNc1ncccn1)N1CCCC(n2cncn2)C1 (stereo not drawn) | -7.32 |
| CCc1nc(CN2CCCN(C(=O)c3ccco3)CC2)cs1 | 16.2 |
| Cc1cc(C)n(CC2CCCN2C(=O)c2ccc(NC3CC3)nc2)n1 (stereo not drawn) | 20.6 |
| COc1ccc(NC(=O)NCC(O)c2ccccc2F)c(OC)c1 (stereo not drawn) | 19.2 |
| O=S(=O)(NCc1ccccc1Cn1cncn1)N1CCCCCC1 | -7.52 |
| O=S(=O)(NCc1ccccc1Cn1cncn1)N1CCCCC1 | -10.7 |
| CCOc1cc(/C=C/c2ncc(C(=O)O)s2)cc(Br)c1OC | -10.4 |
| CCOc1cc(/C=C/c2ncc(C(=O)O)s2)cc(Br)c1O | -11.1 |
| CCn1cc(NC(=O)C2CCN(Cc3nc(C(C)C)no3)CC2)cn1 | -6.8 |
| Cn1cc(C(=O)NCC2CCN(C(=O)NC3CCCCC3)CC2)cn1 | -15.9 |
| c1ccc(Cc2noc(CN3CCCC(Cn4cncn4)C3)n2)cc1 (stereo not drawn) | -14.5 |
| COC(=O)C(c1cc(F)ccc1F)N(C)C(=O)c1cnccn1 (stereo not drawn) | 21.6 |
| Cc1nc(CN2CCCN(C(=O)CCc3ccco3)CC2)cs1 | -12.4 |
| Cc1ccc(NC2CCN(C(=O)COC3CCCCC3)CC2)nn1 | 20.5 |

| SMILES | cytotoxicity at 70.5 h [%] |
| --- | --- |
| Cc1ccc(NC2CCN(C(=O)COCC3CC3)CC2)nn1 | -2.64 |
| Cc1cc(C)n(CC2CCCN2C(=O)c2c[nH]c(=O)c(Cl)c2)n1 (stereo not drawn) | -11.8 |
| Cc1ncsc1C(=O)N1CCCC(n2cncn2)C1 (stereo not drawn) | -13.3 |
| CCn1cc(NC(=O)C2CCN(Cc3noc(C4CC4)n3)CC2)cn1 | -8.03 |
| CC(C)(C)c1nc(CN2CCCC(Cn3cncn3)C2)no1 (stereo not drawn) | -13.7 |
| O=C(c1cncc2ccccc12)N1CCC[C@@H]1CO | -11.6 |
| COc1c(C2CCCN2CC(=O)NCc2ccccn2)c(C)nn1C (stereo not drawn) | -11.4 |
| COC(=O)C(c1ccccc1)N(C)C(=O)c1ccnc(C)n1 (stereo not drawn) | -8.31 |
| O=C(NCCNc1cnccn1)N1CCCC(N2CCCC2)C1 (stereo not drawn) | 3.31 |
| Clc1ccc(OCCCN2CCOC(Cn3cncn3)C2)cc1 (stereo not drawn) | 24.6 |
| CC(C)Sc1ncccc1C(=O)NCc1ccoc1 | -9.56 |
| Cc1cc(C)c(CNC(=O)N2CCCC2c2ccc(F)cc2)c(=O)[nH]1 (stereo not drawn) | -6.72 |
| CC(C)Sc1ncccc1C(=O)NCc1cccc(N(C)C)c1 | 0.244 |
| N#Cc1cccnc1N1CCCN(C(=O)CCn2cccn2)CC1 | -9.39 |
| O=C1NCC(C(=O)Nc2ncc(Cc3ccccc3F)s2)N1 (stereo not drawn) | 3.26 |
| O=C1NCC(C(=O)Nc2ncc(Cc3ccccc3)s2)N1 (stereo not drawn) | 44.7 |
| Cc1cc(NC(=O)CNC2CCCN(c3cccnn3)C2)on1 (stereo not drawn) | 43.8 |
| O=C1NCC(C(=O)Nc2ncc(Cc3ccc(F)cc3)s2)N1 (stereo not drawn) | -3.14 |
| CC(C)(C)c1n[nH]c(C2CN(C(=O)Cn3ccccc3=O)CCO2)n1 (stereo not drawn) | -5.55 |
| CCCc1n[nH]c(C2CN(C(=O)Cn3ccccc3=O)CCO2)n1 (stereo not drawn) | -4.93 |
| CC(c1ccc(F)c(F)c1)N1CCN(Cc2nccn2C)CC1 (stereo not drawn) | 47.8 |
| CCOc1nnc(CN2CCOC(CNc3cccnn3)C2)s1 (stereo not drawn) | 15 |
| CC(O)CN1CCN(C(=O)c2cccc(CC#N)c2)CC1 (stereo not drawn) | 12.7 |
| CC(O)CN1CCN(C(=O)c2ccc(N(C)C)nc2)CC1 (stereo not drawn) | 12 |

| SMILES | cytotoxicity at 70.5 h [%] |
| --- | --- |
| CN(CCCNC(=O)N1CCCC1c1ccsc1)c1ccccn1 (stereo not drawn) | 16.8 |
| O=C(NCCN1CCOCC1)c1n[nH]c(=O)c2ccccc12 | -10.8 |
| O=C(NCCCN1CCCC1)c1n[nH]c(=O)c2ccccc12 | -9.07 |
| COc1ccc(C2CCCN2C(=O)c2csc(NC(C)=O)n2)cc1 (stereo not drawn) | -20.6 |
| CN(Cc1cnn(C)c1)C(=O)NC1CCN(c2ncccn2)CC1 | 12.2 |
| COc1ncccc1NC(=O)C1CCS(=O)(=O)C1 (stereo not drawn) | -15.1 |
| Cc1ncsc1C(=O)NC1CCN(Cc2ccc(C#N)cc2)CC1 | -14.1 |
| CC(=O)Nc1nc(C(=O)N2CCCC2c2ccccc2C)cs1 (stereo not drawn) | -19.1 |
| CCn1cnnc1CNC(=O)NC(C)C(C)C (stereo not drawn) | -17.7 |
| Cn1cnnc1C1CCN(C(=O)CCCOc2ccccc2F)CC1 | -12.8 |
| Cc1cccc(-c2nc(CN3CCc4c(ncn4C)C3)no2)c1 | 20.5 |
| Cc1cc(C)n(CC2CCCN2CC(=O)NC2CCOCC2)n1 (stereo not drawn) | -15.9 |
| COc1ccc2cc(C(=O)N3CCCCC3Cn3cccn3)[nH]c2c1 (stereo not drawn) | -3.69 |
| Cc1cc(C)n(C2CN(CC(O)c3ccc4c(c3)OCO4)C2)n1 (stereo not drawn) | -2.16 |
| CC(O)CN1CCN(C(=O)c2ccc(N(C)C)nn2)CC1 (stereo not drawn) | -4.33 |
| CC(C)c1nnc2n1CCN(CCCS(=O)(=O)c1ccccc1)C2 | -13.8 |
| Cn1c(C2CC2)nc2c1CCN(CC(=O)Nc1nncs1)C2 | -18.2 |
| CN(C)c1ccc(C(=O)N2CCN(C(=O)N3CCCCC3)CC2)nn1 | -18.5 |
| Cc1ncc2c(n1)CCN(Cc1nc3ccccc3o1)C2 | 0.854 |
| O=C(NCc1cc[nH]n1)NCC(O)COc1cccc(F)c1 (stereo not drawn) | 22.7 |
| Cc1nc(CNC(=O)NCC(O)c2ccc(F)cc2F)cs1 (stereo not drawn) | -12 |
| Cc1noc(C)c1CC(=O)OCC(=O)N1CCc2sccc2C1 | 7.95 |
